Test results reported in US8952024B2, “Herbicidal pyrimidone derivatives” (E I du Pont de Nemours and Company, priority 2009, dated 2015).

Experiments:
Format in all cases: in vivo
[1] = test system: pigweed (Amaranthus retroflexus); assay: Test A pre-/postemergence plant response
Method in brief: (§1)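 Visual injury rating on a 0–100 scale (0 = no effect, 100 = complete control) was made versus untreated controls after about ten days in the greenhouse. Compounds, formulated in a non-phytotoxic solvent mix containing surfactant, were sprayed preemergence onto loam/sand soil and postemergence onto one- to two-leaf plants.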

[2] = test system: barnyardgrass (Echinochloa crus-galli); assay: Test A pre-/postemergence plant response
Method in brief: as §1

[3] = test system: corn (Zea mays); assay: Test A pre-/postemergence plant response
Method in brief: as §1

[4] = test system: giant foxtail (Setaria faberii); assay: Test A pre-/postemergence plant response
Method in brief: as §1

[5] = test system: velvetleaf (Abutilon theophrasti); assay: Test A pre-/postemergence plant response
Method in brief: as §1

[6] = test system: large crabgrass (Digitaria sanguinalis); assay: Test A pre-/postemergence plant response
Method in brief: as §1

[7] = test system: morningglory (Ipomoea spp.); assay: Test A pre-/postemergence plant response
Method in brief: as §1

[8] = test system: wheat (Triticum aestivum); assay: Test A pre-/postemergence plant response
Method in brief: as §1

[9] = test system: winter barley (Hordeum vulgare); assay: Test B postemergence plant response; settings: for Barley plant response rating (0 to 100 scale): 62 g ai/ha, 0 is no effect, 13 to 15 days
Method in brief: (§2)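 Plants at the 1- to 4-leaf stage (2 to 18 cm tall), grown in pots of peat moss/vermiculite medium with wetting agent and starter nutrients, received postemergence applications of test chemicals. After 13 to 15 days in a greenhouse, injury was rated visually against untreated controls on a 0 (no effect) to 100 (complete control) scale.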

[10] = test system: canarygrass (Phalaris minor); assay: Test B postemergence plant response; settings: for Canarygrass plant response rating (0 to 100 scale): 62 g ai/ha, 0 is no effect, 13 to 15 days
Method in brief: as §2

[11] = test system: chickweed (Stellaria media); assay: Test B postemergence plant response; settings: for Chickweed plant response rating (0 to 100 scale): 62 g ai/ha, 0 is no effect, 13 to 15 days
Method in brief: as §2

[12] = test system: windgrass (Apera spica-venti); assay: Test B postemergence plant response; settings: for Windgrass plant response rating (0 to 100 scale): 62 g ai/ha, 0 is no effect, 13 to 15 days
Method in brief: as §2

[13] = Postemergence, 125 g ai/ha, 0 to 100 scale where 0 is no effect and 100 is complete control
[14] = Postemergence, 500 g ai/ha, 0 to 100 scale, 0 = no effect, 100 = complete control, approx. ten days
[15] = Preemergence, 125 g ai/ha, 0 to 100 scale, 0 = no effect, 100 = complete control
[16] = Preemergence, 500 g ai/ha, visual injury, 0 to 100 scale (0 no effect, 100 complete control), approx. ten days
[17] = 31 g ai/ha, postemergence, scale 0 to 100, 0 is no effect, 100 is complete control
[18] = postemergence, 100 is complete control
[19] = Postemergence, 125 g ai/ha, visual rating after 13 to 15 days, scale 0 (no effect) to 100 (complete control)
[20] = Postemergence, 250 g ai/ha, scale 0 to 100 (0 no effect, 100 complete control)

CCCc1ncc(C(=O)C2=C(O)CCCC2=O)c(=O)n1CC1CCCO1 (stereo not shown) [Compound 74]
20: Plant response rating, Corn [3, 14] | Plant response rating, Wheat [8, 14]
60: Plant response rating, Barnyardgrass [2, 16] | Plant response rating, Morningglory [7, 16] | Windgrass plant response rating (0 to 100 scale) [12, 18]
75: Plant response rating, Chickweed [11, 17]
70: Plant response rating, Velvetleaf [5, 15] | Plant response rating, Crabgrass, Large [6, 15]
100: Plant response rating, Pigweed [1, 13] | Plant response rating, Pigweed [1, 14] | Plant response rating, Pigweed [1, 16] | Plant response rating, Velvetleaf [5, 14] | Plant response rating, Morningglory [7, 14] | Plant response rating, Chickweed [11, 20]
90: Plant response rating, Pigweed [1, 15] | Plant response rating, Barnyardgrass [2, 14] | Plant response rating, Velvetleaf [5, 13] | Plant response rating, Velvetleaf [5, 16] | Plant response rating, Crabgrass, Large [6, 13] | Plant response rating, Crabgrass, Large [6, 14] | Plant response rating, Crabgrass, Large [6, 16] | Plant response rating, Morningglory [7, 13]
0: Plant response rating, Corn [3, 13] | Plant response rating, Corn [3, 15] | Plant response rating, Corn [3, 16] | Plant response rating, Foxtail, Giant [4, 15] | Plant response rating, Wheat [8, 13] | Plant response rating, Wheat [8, 15] | Plant response rating, Wheat [8, 16] | Plant response rating, Barley [9, 17] | Barley plant response rating (0 to 100 scale) [9, 18] | Plant response rating, Barley [9, 19] | Plant response rating, Barley [9, 20] | Plant response rating, Canarygrass [10, 17] | Canarygrass plant response rating (0 to 100 scale) [10, 18] | Plant response rating, Canarygrass [10, 19] | Plant response rating, Canarygrass [10, 20]
85: Chickweed plant response rating (0 to 100 scale) [11, 18]
30: Plant response rating, Barnyardgrass [2, 15]
5: Plant response rating, Windgrass [12, 17]
95: Plant response rating, Chickweed [11, 19] | Plant response rating, Windgrass [12, 20]
80: Plant response rating, Barnyardgrass [2, 13] | Plant response rating, Foxtail, Giant [4, 14] | Plant response rating, Windgrass [12, 19]
40: Plant response rating, Foxtail, Giant [4, 13] | Plant response rating, Foxtail, Giant [4, 16] | Plant response rating, Morningglory [7, 15]

CCCn1c(-c2cccs2)ncc(C(=O)C2=C(O)CCCC2=O)c1=O [Compound 77]
100: Plant response rating, Pigweed [1, 13] | Plant response rating, Pigweed [1, 14] | Plant response rating, Velvetleaf [5, 13] | Plant response rating, Velvetleaf [5, 14] | Plant response rating, Velvetleaf [5, 16] | Plant response rating, Morningglory [7, 14]
98: Plant response rating, Chickweed [11, 20]
60: Plant response rating, Crabgrass, Large [6, 13]
95: Plant response rating, Chickweed [11, 19]
80: Plant response rating, Pigweed [1, 15] | Plant response rating, Barnyardgrass [2, 13] | Plant response rating, Crabgrass, Large [6, 14] | Plant response rating, Chickweed [11, 17]
25: Plant response rating, Windgrass [12, 20]
90: Plant response rating, Pigweed [1, 16] | Plant response rating, Barnyardgrass [2, 14] | Plant response rating, Crabgrass, Large [6, 16] | Plant response rating, Morningglory [7, 13]
85: Chickweed plant response rating (0 to 100 scale) [11, 18]
10: Plant response rating, Windgrass [12, 17] | Windgrass plant response rating (0 to 100 scale) [12, 18]
20: Plant response rating, Barnyardgrass [2, 15] | Plant response rating, Corn [3, 14] | Plant response rating, Foxtail, Giant [4, 16] | Plant response rating, Windgrass [12, 19]
70: Plant response rating, Foxtail, Giant [4, 14] | Plant response rating, Velvetleaf [5, 15] | Plant response rating, Morningglory [7, 16]
0: Plant response rating, Corn [3, 13] | Plant response rating, Corn [3, 15] | Plant response rating, Corn [3, 16] | Plant response rating, Foxtail, Giant [4, 15] | Plant response rating, Wheat [8, 13] | Plant response rating, Wheat [8, 14] | Plant response rating, Wheat [8, 15] | Plant response rating, Wheat [8, 16] | Plant response rating, Barley [9, 17] | Barley plant response rating (0 to 100 scale) [9, 18] | Plant response rating, Barley [9, 19] | Plant response rating, Barley [9, 20] | Plant response rating, Canarygrass [10, 17] | Canarygrass plant response rating (0 to 100 scale) [10, 18] | Plant response rating, Canarygrass [10, 19] | Plant response rating, Canarygrass [10, 20]
50: Plant response rating, Barnyardgrass [2, 16] | Plant response rating, Foxtail, Giant [4, 13] | Plant response rating, Crabgrass, Large [6, 15]

Cc1ccc(-c2ncc(C(=O)C3=C(O)CCCC3=O)c(=O)n2-c2ccccc2)cc1 [Compound 80]
70: Plant response rating, Foxtail, Giant [4, 13] | Plant response rating, Crabgrass, Large [6, 13] | Plant response rating, Canarygrass [10, 20] | Plant response rating, Windgrass [12, 19]
75: Plant response rating, Barley [9, 20]
10: Plant response rating, Barnyardgrass [2, 16] | Plant response rating, Foxtail, Giant [4, 15]
30: Plant response rating, Barnyardgrass [2, 13] | Plant response rating, Morningglory [7, 16] | Barley plant response rating (0 to 100 scale) [9, 18] | Plant response rating, Barley [9, 19]
60: Plant response rating, Pigweed [1, 15] | Plant response rating, Foxtail, Giant [4, 16] | Windgrass plant response rating (0 to 100 scale) [12, 18]
100: Plant response rating, Pigweed [1, 13] | Plant response rating, Pigweed [1, 14] | Plant response rating, Velvetleaf [5, 13] | Plant response rating, Velvetleaf [5, 14] | Plant response rating, Velvetleaf [5, 16] | Plant response rating, Morningglory [7, 13] | Plant response rating, Morningglory [7, 14] | Plant response rating, Chickweed [11, 19] | Plant response rating, Chickweed [11, 20]
15: Plant response rating, Barley [9, 17]
98: Chickweed plant response rating (0 to 100 scale) [11, 18]
50: Plant response rating, Corn [3, 14] | Plant response rating, Velvetleaf [5, 15] | Plant response rating, Crabgrass, Large [6, 15] | Canarygrass plant response rating (0 to 100 scale) [10, 18] | Plant response rating, Canarygrass [10, 19] | Plant response rating, Windgrass [12, 17]
90: Plant response rating, Pigweed [1, 16] | Plant response rating, Foxtail, Giant [4, 14] | Plant response rating, Crabgrass, Large [6, 14] | Plant response rating, Crabgrass, Large [6, 16] | Plant response rating, Chickweed [11, 17]
45: Plant response rating, Canarygrass [10, 17]
80: Plant response rating, Barnyardgrass [2, 14] | Plant response rating, Windgrass [12, 20]
0: Plant response rating, Barnyardgrass [2, 15] | Plant response rating, Corn [3, 13] | Plant response rating, Corn [3, 15] | Plant response rating, Corn [3, 16] | Plant response rating, Morningglory [7, 15] | Plant response rating, Wheat [8, 13] | Plant response rating, Wheat [8, 14] | Plant response rating, Wheat [8, 15] | Plant response rating, Wheat [8, 16]

Cc1ccccc1-c1ncc(C(=O)C2=C(O)CCCC2=O)c(=O)n1-c1ccccc1 [Compound 82]
5: Plant response rating, Barley [9, 20] | Plant response rating, Windgrass [12, 17] | Windgrass plant response rating (0 to 100 scale) [12, 18]
90: Plant response rating, Pigweed [1, 13] | Plant response rating, Pigweed [1, 15] | Plant response rating, Velvetleaf [5, 16] | Plant response rating, Crabgrass, Large [6, 14] | Plant response rating, Morningglory [7, 13] | Plant response rating, Chickweed [11, 17] | Chickweed plant response rating (0 to 100 scale) [11, 18]
70: Plant response rating, Barnyardgrass [2, 14]
80: Plant response rating, Foxtail, Giant [4, 14]
20: Plant response rating, Corn [3, 14] | Plant response rating, Windgrass [12, 19]
0: Plant response rating, Barnyardgrass [2, 15] | Plant response rating, Corn [3, 13] | Plant response rating, Corn [3, 15] | Plant response rating, Corn [3, 16] | Plant response rating, Morningglory [7, 15] | Plant response rating, Wheat [8, 13] | Plant response rating, Wheat [8, 14] | Plant response rating, Wheat [8, 15] | Plant response rating, Wheat [8, 16] | Plant response rating, Barley [9, 17] | Barley plant response rating (0 to 100 scale) [9, 18] | Plant response rating, Barley [9, 19] | Plant response rating, Canarygrass [10, 17] | Canarygrass plant response rating (0 to 100 scale) [10, 18]
35: Plant response rating, Canarygrass [10, 20]
100: Plant response rating, Pigweed [1, 14] | Plant response rating, Pigweed [1, 16] | Plant response rating, Velvetleaf [5, 13] | Plant response rating, Velvetleaf [5, 14] | Plant response rating, Crabgrass, Large [6, 16] | Plant response rating, Morningglory [7, 14] | Plant response rating, Chickweed [11, 20]
60: Plant response rating, Morningglory [7, 16]
15: Plant response rating, Canarygrass [10, 19]
10: Plant response rating, Barnyardgrass [2, 13] | Plant response rating, Barnyardgrass [2, 16] | Plant response rating, Foxtail, Giant [4, 13] | Plant response rating, Foxtail, Giant [4, 15]
98: Plant response rating, Chickweed [11, 19]
40: Plant response rating, Foxtail, Giant [4, 16] | Plant response rating, Crabgrass, Large [6, 13]
50: Plant response rating, Velvetleaf [5, 15] | Plant response rating, Windgrass [12, 20]
